Source: patent US6841661B2, “Glycopeptide antibacterial compounds, compositions containing same and methods of using same” (Princeton Univerisity, priority 1999, dated 2005)
In brackets after ≈: the same amount, converted by molar mass. Several values for one entry are separate records, joined by “and”; a condition that tells them apart may be missing. Identical values can stand only once. Like-named read-outs stand apart in the source and are kept apart here.

Columns and labels:
[1] = tested on: E. faecium CL 5053 (VanA); assay: microbe, parasite or virus in culture; type: cell-based; set-up: CL5053 (in vitro testing): unit not given here; settings: for CL5053 (in vitro testing): Tables 7 and 8, unit not given
Method in brief: (§1)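 NCCLS M7-A4-based broth microdilution with twofold serial dilutions, incubated at 35° C; medium BHI for enterococci and VISA/MRSA, cation-adjusted Mueller-Hinton for E. coli. Inoculum about 1-5×10^6 CFU/ml (enterococci) or 3-7×10^5 CFU/ml (others); MIC is lowest concentration with no visible growth, read at 18-20 hr for E. coli, 22-24 hr otherwise.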

[2] = tested on: MRSA MH 76; assay: In vitro MIC panel assay (NCCLS broth microdilution); type: cell-based, Staphylococcus aureus; settings: MRSA MH 76; MH II broth
From the text: (§2) National Committee for Clinical Laboratory Standards (NCCLS) guidelines [Methods for Dilution Antimicrobial Susceptibility Tests for Bacteria that Grow Aerobically-Fourth Edition; Approved Standard (NCCLS Document M7-A4, January 1997)] are used to establish the assay, although variations are made to optimize the published method according to the specific needs of the present investigation.
(§3) The test panel currently includes eight enterococci and 13 staphylococci, which are selected based upon their antibiotic susceptibility profiles. The methicillin-sensitive Staphylococcus aureus (MSSA) strain MB2985 (Smith isolate) is used to assesses the potential for serum protein binding of the compounds. The paired Gram-negative strains ASP #49 (envA-) and ASP #50 (envA+) (M. Salvatore/N. Lee) are included to judge membrane effects. Table 3 presents a detailed description of the strains included in the panel, including some of the sources of the strains of bacteria.
The glycopeptide antibiotic teicoplanin is included whenever possible. […]
The number of CFU/mL is determined on BHI agar plates, although this is not done routinely because titers of overnight cultures are relatively constant. […]

[3] = tested on: Staphylococcus aureus strain MB2985; assay: In vivo mouse methicillin-sensitive Staphylococcus aureus septicemia protection; set-up: species or system ICR female mice
Protocol: Selected compounds of the invention are tested in an in vivo mouse model. Single dose subcutaneous antibiotic protection from septicemic infections is measured as described by Gill, C. J., J. J. Jackson, L. Gerckens, B. Pelak, R. Thompson, J. Sundelof, H. Kropp and H. Rosen. Antimicrob. Agents Chemother. 42:1996-2001 (1998). Survival is monitored for seven days. ED50's and LD50's are determined by the method of Knudsen and Curtis. J. Am. Stat. Assoc. 42:282-296 (1947). Septicemia is induced in 20 gram ICR (derived from CD-I) female mice by intraperitoneal infection with Staphylococcus aureus strain MB2985. Infection is given i.p. in Brain Heart Broth (BHB) at an infectious inoculum of 1.8×10^7 cfu/mouse. Drug is administered subcutaneously immediately after the infection is initiated.

[4] = tested on: MRCNS CL 202 (S. haem.); assay: In vitro MIC panel assay (NCCLS broth microdilution); type: cell-based; settings: MRCNS CL 202 (S. haem.); MH II broth
From the text: as §2, §3
(§4) The glycopeptide antibiotic teicoplanin is included whenever possible.
(§5) TSB, containing 10% HS* for vancomycin intermediate S. aurcus/methicillin-resistant S. aureus (VISA/MRSA) strains, is inoculated from an appropriate source (frozen broth or agar slant) and grown approximately 17 hr at 35° C. with shaking at 220 rpm. Cultures are grown in tubes with a volume of 5 ml for enterococci and 2 ml for all other strains.
(§6) Four milliliter (4 ml) overnight culture is added to 36 ml physiological saline to obtain tenfold dilutions (enterococci). Overnight culture (0.4 ml) is added to 39.6 ml saline to obtain 100-fold dilutions (all strains except enterococci). Diluted cultures are maintained on ice until time of inoculation of test plates.
(§7) The number of CFU/mL is determined on BHI agar plates, although this is not done routinely because titers of overnight cultures are relatively constant. The test media include: • BHI for enterococci and VISA/MRSA; • MH II (i.e., cation-adjusted Mueller-Hinton broth) for MRS, MSS and E. coli.; • MH II+HSA for MSSA is prepared as follows: • a. 2×MHII+86mg/ml HSA • b. Dissolve 4.3 g HSA in 50 ml autoclaved 2x MH II. • c. pH to 7.0 by adding 2M MOPS, sodium. • d. Filter sterilize using 0.22 μm Coming cellulose acetate filter, used because of reported low protein binding. • e. 1×MH II+43 mg/ml HSA • f. Dilute the 2×medium twofold and filter as above. 5.8.6. Preparation of Test Plates
(§8) Using a Denley liquid handling system (or similar automatic device), 100 μ1×medium is added to each well in columns 2-12 of a 96-well microtiter dish. Using a multichannel pipettor, 100 μl 2×medium is added to each well in column 1. Plates may be filled on the day prior to assay, wrapped in plastic bags and refrigerated.
(§9) Vancomycin, Schering 29482, and teicoplanin are prepared on a weight per volume basis using 10 mM 3-(N-morpholino)propane-sulfonic acid (MOPS) buffer pH 7. Test compounds are received in solution in appropriate solvent (typically as 1 mg/ml in DMSO) or are dissolved in appropriate solvent prior to further dilution in 10 mM MOPS buffer, ph7. Consistent with NCCLS guidelines, antibiotics are handled aseptically but are not otherwise sterilized.
(§10) 100 μl appropriately diluted antibiotic solution is added to the first well of the designated row of the 96-well microtiter dish and serially diluted by twofold across the row using the Denley liquid handling system. With the aid of a Dynatech NEC 2000 inoculator, each well of the microtiter dish is inoculated with 1.5 μl diluted overnight culture, yielding approximately 1-5×10^6 CFU/ml for enterococci and approximately 3-7×10^5 CFU/ml for all other strains. Dishes are placed in stacks of no more than five, wrapped in plastic bags and incubated at 35° C. • Indication of result(s) type (% INH, IC50, Zone size, etc.) • MIC=minimum inhibitory concentration ps 5.8.9. Interpretation of the Results on the Basis of Activity […]

[5] = tested on: MRCNS CL 3069 (S. epi.); assay: as above; type: cell-based; settings: MRCNS CL 3069 (S. epi.); MH II broth
From the text: as §2, §3, §4, §5, §6, §7, §8, §9, §10

[6] = tested on: E. coli ASP #50 (envA+); assay: as above; type: cell-based; settings: E. coli ASP #50 (envA+); MH II broth
From the text: as §2, §3, §4, §5, §6, §7, §8, §9, §10

[7] = tested on: E. coli ASP #49 (envA-); assay: as above; type: cell-based; settings: E. coli ASP #49 (envA−); MH II broth
From the text: as §2, §3, §4, §5, §6, §7, §8, §9, §10

[8] = tested on: S. aureus MB 2985; assay: MIC by microdilution in Mueller-Hinton broth (in vivo study); type: cell-based; settings: inoculum 1.4 × 10^5 cfu/mL in cation adjusted MHB
Protocol: The MIC is determined by microdilution in Mueller-Hinton broth (MHB) according to the National Committee for Clinical Laboratory Standards guidelines after incubation for 24 hours. Enterococci are tested in cation-supplemented Mueller-Hinton broth at 1.4×10^5 cfu/ml. MIC is defined as the lowest concentration of antibiotic, which inhibits visible growth.

[9] = Pharmacokinetic studies; type: in vivo; settings: compared with compound 2; stated as and/or
[10] = tested on: E. faecalis CL 4877 (VanB); assay: microbe, parasite or virus in culture; type: cell-based; set-up: CL4877 (in vitro testing): unit not given here; settings: for CL4877 (in vitro testing): Tables 7 and 8, unit not given; for MIC, CL4877: E. faecalis CL 4877 (VanB)
Method in brief: as §1

[11] = tested on: E. faecium CL 4931 (VanA); assay: microbe, parasite or virus in culture; type: cell-based; set-up: CL4931 (in vitro testing): unit not given here; settings: for CL4931 (in vitro testing): Tables 7 and 8, unit not given; for MIC, CL4931: E. faecium CL 4931 (VanA)
Method in brief: as §1

[12] = tested on: E. faecium CL 5242 (VanA); assay: microbe, parasite or virus in culture; type: cell-based; set-up: CL5242 (in vitro testing): unit not given here; settings: for CL5242 (in vitro testing): Tables 7 and 8, unit not given; for MIC, CL5242: E. faecium CL 5242 (VanA)
Method in brief: as §1

[13] = tested on: CL 4931, CL 5053, CL 5242 and CL 4877; type: cell-based, E. faecium, E. faecalis; set-up: unit not given here
Method in brief: as §1

[14] = mouse septicemia, S. aureus 2985 i.p. 1.8 × 10^7 cfu/mouse, single s.c. dose at 0 hr, survival seven days
[15] = mean of CL4931, CL5053, CL5242, CL4877, unit not given
[16] = Table 9, E. faecium CL 5053 (VanA)
[17] = Table 9, mean MIC over CL4931, CL5053, CL5242, CL4877

Molecule | CL5053 (in vitro testing) [1] | CL4877 (in vitro testing) [10] | CL4931 (in vitro testing) [11] | CL5242 (in vitro testing) [12] | Mean [13, 15] | MIC, CL5053 [1, 16] | MIC, CL4877 ([10]; Table 9) | MIC, CL4931 ([11]; Table 9) | MIC, CL5242 ([12]; Table 9) | Mean [13, 17] | also measured
CNC(CC(C)C)C(=O)NC1C(=O)NC(CC(N)=O)C(=O)NC2C(=O)NC3C(=O)NC(C(=O)NC(C(=O)O)c4cc(O)cc(O)c4-c4cc3ccc4O)C(O)c3ccc(c(Cl)c3)Oc3cc2cc(c3OC2OC(CN)C(O)C(O)C2OC2CC(C)(NCc3ccc(OCc4ccc(Cl)c(Cl)c4)cc3)C(O)C(C)O2)Oc2ccc(cc2Cl)C1O (stereo not shown) [Compound 13, Glucos-6-amino-N-4-(3,4-dichlorobenzyloxy)benzyl-vancosamino-vancomycin] |  |  |  |  |  |  |  |  |  |  | MIC ([1]; E. faecium CL 5053 (VanA), BHI broth): 1 µg/mL and 2 µg/mL; MIC [2]: 0.25 µg/mL (≈ 0.146 µM); ED50/MIC ([3]; S. aureus 2985, ratio of s.c. ED50 to MIC): 3.12; ED0 (s.c.) [3, 14]: 0.195 mg/kg; ED50 (s.c.) [3, 14]: 0.390 mg/kg; ED100 (s.c.) [3, 14]: 0.780 mg/kg; MIC [4]: 0.12 µg/mL and 0.06 µg/mL; MIC [5]: 0.06 µg/mL and 0.03 µg/mL; MIC [6]: >64 µg/mL and 64 µg/mL; MIC [7]: 16 µg/mL and 8 µg/mL; MIC [8]: 0.125 µg/mL (≈ 0.073 µM); bioavailability [9]: unexpectedly greater bioavailability; clearance rate [9]: faster clearance rate; tissue distribution [9]: more favorable tissue distribution
CNC(CC(C)C)C(=O)NC1C(=O)NC(CC(N)=O)C(=O)NC2C(=O)NC3C(=O)NC(C(=O)NC(C(=O)O)c4cc(O)cc(O)c4-c4cc3ccc4O)C(O)c3ccc(c(Cl)c3)Oc3cc2cc(c3OC2OC(CN)C(O)C(O)C2OC2CC(C)(NCC(=O)Oc3ccc(-c4ccc(Cl)c(Cl)c4)cc3)C(O)C(C)O2)Oc2ccc(cc2Cl)C1O (stereo not shown) [Compound 189] | >32 | 32 | 32 | 32 | 32 |  |  |  |  |  | 
CNC(CC(C)C)C(=O)NC1C(=O)NC(CC(N)=O)C(=O)NC2C(=O)NC3C(=O)NC(C(=O)NC(C(=O)O)c4cc(O)cc(O)c4-c4cc3ccc4O)C(O)c3ccc(c(Cl)c3)Oc3cc2cc(c3OC2OC(CNCc3ccccc3)C(O)C(O)C2OC2CC(C)(NCc3ccc(-c4ccc(Cl)cc4)cc3)C(O)C(C)O2)Oc2ccc(cc2Cl)C1O (stereo not shown) [Compound 190] |  |  |  |  |  | 8 µg/mL (≈ 4.6 µM) | 4 µg/mL (≈ 2.3 µM) | 8 µg/mL (≈ 4.6 µM) | 2 µg/mL (≈ 1.15 µM) | 5.5 | 
C=Cc1ccccn1 [Compound 191, 2-pyridylethylene] |  |  |  |  |  | 16 µg/mL (≈ 152 µM) | 16 µg/mL (≈ 152 µM) | 16 µg/mL (≈ 152 µM) | 4 µg/mL (≈ 38 µM) | 13.0 | 
CNC(CC(C)C)C(=O)NC1C(=O)NC(CC(N)=O)C(=O)NC2C(=O)NC3C(=O)NC(C(=O)NC(C(=O)O)c4cc(O)cc(O)c4-c4cc3ccc4O)C(O)c3ccc(c(Cl)c3)Oc3cc2cc(c3OC2OC(CNCC3CCCO3)C(O)C(O)C2OC2CC(C)(NCc3ccc(-c4ccc(Cl)cc4)cc3)C(O)C(C)O2)Oc2ccc(cc2Cl)C1O (stereo not shown) [Compound 192] |  |  |  |  |  | 16 µg/mL (≈ 9.23 µM) | 16 µg/mL (≈ 9.23 µM) | 16 µg/mL (≈ 9.23 µM) | 4 µg/mL (≈ 2.31 µM) | 13.0 | 
teicoplanin [reference compound] | >1024 | 0.5 | 256 | 256 | 170.8 | > 1020 µg/mL | 0.5 µg/mL | 256 µg/mL | 256 µg/mL | 128.1 | MIC, CL5053 ([1]; Table 10, E. faecium CL 5053 (VanA)): > 1020 µg/mL; MIC, CL4877 ([10]; Table 10): 16 µg/mL; MIC, CL4931 ([11]; Table 10): 256 µg/mL; MIC, CL5242 ([12]; Table 10): 256 µg/mL; Mean ([13]; Table 10, mean MIC over CL4931, CL5053, CL5242, CL4877): 256.0
